Key:
xyl3.2 = system: T1, xyl3.2; assay: 4-nitrophenol release, […] nm, Michaelis-Menten fit; type: biochemical, synthetic construct; conditions: 37 °C, 50 mM Tris pH 6.5, 150 mM NaCl; MBP fusion
T1 construct: computational design (112 mutations to nearest natural protein), N-terminal His6-MBP fusion kept

[1] = target: T2, GH10 from S. lividans (PDB ID 1E0V) (Streptomyces lividans, UniProt P26514); assay: 4-nitrophenol release, […] nm; type: biochemical; conditions: 37 °C, 50 mM Tris pH 6.5, 150 mM NaCl; MBP fusion
T2 construct: gene xlnA; synthetic codon-optimised gene, N-terminal His6-MBP fusion kept in assay, E. coli BL21 DE3; probably catalytic domain as in 1E0V
T2 sequence (P26514 42-354): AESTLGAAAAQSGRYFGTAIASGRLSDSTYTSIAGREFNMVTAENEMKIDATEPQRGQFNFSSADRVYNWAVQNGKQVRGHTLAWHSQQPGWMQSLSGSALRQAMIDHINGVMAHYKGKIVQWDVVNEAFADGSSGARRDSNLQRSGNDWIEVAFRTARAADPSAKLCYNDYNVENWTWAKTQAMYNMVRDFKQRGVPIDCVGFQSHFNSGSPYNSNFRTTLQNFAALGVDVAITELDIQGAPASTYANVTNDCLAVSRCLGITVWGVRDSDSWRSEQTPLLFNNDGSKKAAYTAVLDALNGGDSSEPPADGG

pll4.1 = system: T3, pll4.1; type: biochemical, synthetic construct
T3 construct: computational design (85 mutations to nearest natural protein), N-terminal His6-MBP fusion kept

pll2.4 = system: T4, pll2.4; type: biochemical, synthetic construct
T4 construct: computational design (60 mutations to nearest natural protein), N-terminal His6-MBP fusion kept

pll2.2 = system: T5, pll2.2; type: biochemical, synthetic construct
T5 construct: computational design (54 mutations to nearest natural protein), N-terminal His6-MBP fusion kept

| Km (xyl3.2) | Compound | kcat/KM [1] | Km (pll4.1) | Km (pll2.4) | Km (pll2.2) |
| --- | --- | --- | --- | --- | --- |
| 160 ± 20 µM | O=[N+]([O-])c1ccc(O[C@@H]2OC[C@@H](O[C@@H]3OC[C@@H](O)[C@H](O)[C@H]3O)[C@H](O)[C@H]2O)cc1 [4-nitrophenyl β-xylobioside] | Catalytic efficiency of GH10 designs with OPNPX2 compared to natural GH10 enzymes |  |  |  |
|  | CCCCSC1CCC(=O)O1 (centres unmarked) [5-thiobutyl butyrolactone] |  | 350 µM | 82 µM | 180 µM |

From PMC6050298, “Highly active enzymes by automated combinatorial backbone assembly and sequence design” (Nature Communications, 2018)
